Reference: patent US20040018482A1, “Loading and unloading of permeating protectants for cell, tissue, and organ cryopreservation by vitrification” (priority 1997, published 2004)
Values belong to the compound of their own block, whether it stands above or below them.

Assays:
[1] = system: isolated rat heart; assay: Cardiac function of isolated rat heart (working mode reperfusion) after DMSO loading and unloading
Experimental: Preparation of the Cardiac Explant: The animal experiments were conducted in accordance with the “Principles of Laboratory Animal Care” formulated by the Institute of Laboratory Animal Resources and the “Guide for the Care and Use of Laboratory Animals” prepared by the Institute of Laboratory Animal Resources and published by the National Institute of Health (NIH Publication No. 86-23, 1985). Male Sprague-Dawley rats (300-350g) were anesthetized with sodium pentobarbital (65 mg/kg, ip) and anticoagulated with heparin (250u, iv). The heart was excised and immediately immersed in ice-cold Krebs-Henseleit buffer (KHB), which contained (in mM): 118 NaCl, 11 glucose, 25 NaHCO3, 4.7 KCl, 1.2 MgSO4, 1.2 KH2PO4, 0.5 Na-EDTA, and 2.5 CaCl2. The aorta was cannulated and the heart retrograde perfused at 70 mm Hg for 9 min. with 36.5° C. KHB equilibrated with 95% 02/[…]. The perfusion was continued for 2 min. at 60 mm Hg with CP-11E saturated with 100% 02. The composition of CP-11E (in mM) was: 125 NaCl, 7 glucose, 1.2 KH2PO4, 10 mannitol, 15 MgSO4, 14 KCl, 10 Hepes, 0.02 EDTA, 0.28 CaCl2 , pH 7.5.
After CP-11E flush, the arrested heart was transferred to a perfusion apparatus (FIG. 1). Both CP-11EB and CP-11E+DMSO+mannitol were bubbled constantly with 100% 02. Perfusate was delivered via an aortic cannula by a peristaltic pump at a flow rate of 1 ml/min. Two experiments were performed at room temperature.
Experiment 0: The heart was gradually loaded with 30 wt % DMSO and immediately unloaded. No co-solutes were used. […]
Assessment of cardiac function: Cardiac function was assessed by working mode reperfusion with KHB at 11 mm Hg preload and 70 mm Hg after load. Heart rate (HR, beats/min), aortic and coronary flow (AF and CF, ml/min.), cardiac output (CO=AF+CF, ml/min.), systolic and diastolic aortic pressure (mm Hg) were recorded. Coronary vascular resistance and work were calculated according to Neely et al., 1967 (Neely et al. “Effect of Pressure Development on Oxygen Consumption by the Isolated Rat Heart ”. Am. J. Physiology, 212:804-12, 1967).

[2] = system: erythrocytes; assay: Hemolysis of rat erythrocytes after step loading and unloading with ethylene glycol vitrification solution; type: cell-based; details: added to 60 wt % EG+0.9 wt % NaCl vitrification solution; 60 min equilibration and two unloading steps; room temperature, pH 7.0; FIG. 1
Experimental: Blood was sampled from external jugular vein of rats after heart extrusion described in Example 1.
Step 1: 100 μl of blood were mixed with 100 μl of 30 wt % EG+0.9 wt % NaCl. Equilibration time 10 min.
Step 2: 1000 μl of vitrification solution vitrification solution containing mixture of 60 wt % EG+0.9 wt % NaCl with different amounts of glutamic acid monosodium Salt (GA) per gram of Vitrification solution were slowly (during 3-5 min.) added to the mixture obtained after Step 1.
After that the blood cells were equilibrated in Vitrification solution during 60 min. before unloading.
Step 1: After 60 min. equilibration in vitrification solution erythrocytes were centrifuged down (5 min. at 2000 g), 0.5 ml of supernatant was removed from each sample, and 0.5 ml of 3 wt % GA+0.9 wt % NaCl were added to each sample. […]
Concentration of free hemoglobin in supernatants collected from the samples after equilibration in Vitrification solution, first and second step of unloading was used to characterize the erythrocyte damage (hemolysis). The concentration of free hemoglobin was measured using 390 Turner spectrophotometer (at 550 nm wavelength) after adding 0.5 ml of supernatant to 3 ml of water. The hemolysis was measured as a ratio of hemoglobin concentration in the supernatants to the hemoglobin concentration in the mixture of 41.7 μl of blood with 3.5 ml water that was taken as 100% hemolysis. […]

[3] = system: Drosophila melanogaster embryos; details: co-solute in ethylene glycol vitrification solution; cited from earlier work
[4] = Experiment 0: loaded to 30 wt % DMSO in 30 min, unloaded 60 min, no co-solutes (mannitol not present)

Structure (SMILES): OC[C@@H](O)[C@@H](O)[C@H](O)[C@H](O)CO [mannitol]
effect of presence of mannitol on damage to the heart caused by high concentration of DMSO and changes in osmotic pressure ([1]; mannitol present during loading, perfusion and unloading (Experiments 1 and 2)): prevented damage to the heart

recovery in function after unloading [1, 4]: no recovery in function
state of the heart (contracture) [1, 4]: developed contracture
Structure (SMILES): C[S+](C)[O-] [DMSO, dimethylsulfoxide]

Structure (SMILES): N[C@@H](CCC(=O)O)C(=O)[O-].[Na+] [GA, glutamic acid monosodium Salt]
effect of co-solute on erythrocyte damage (hemolysis) [2]: protects erythrocytes from damage

Structure (SMILES): NCC(=O)O [glycine]
effect on ethylene glycol permeation into embryos [3]: significantly diminished ethylene glycol permeation

Structure (SMILES): OC[C@@H](O)[C@@H](O)[C@H](O)[C@@H](O)CO [sorbitol]
effect on ethylene glycol permeation into embryos [3]: significantly diminished ethylene glycol permeation

Structure (SMILES): N[C@@H](CCC(=O)O)C(=O)O [glutamic acid]
effect on ethylene glycol permeation into embryos [3]: significantly diminished ethylene glycol permeation
